Data: ChEMBL document CHEMBL4373747 (ACS Med Chem Lett, 2020)

Columns and labels:
[1] = Cytotoxicity against human MRC9 cells assessed as reduction in cell viability incubated for 72 hrs by cell-titer blue assay; type: cell-based; settings: MRC9, 72 h
MDA-MB-231 = assay: Cytotoxicity against human MDA-MB-231 cells assessed as reduction in cell viability incubated for 72 hrs by cell-titer blue assay; type: functional, cell-based; settings: MDA-MB-231, 72 h
MV4-11 [2] = assay: Induction of apoptosis in human MV4-11 cells assessed as viable cells at 0.5 uM incubated for 18 hrs by annexin V FITC and PI based flow cytometry (reference value: 53.01 to 53.07 %); type: functional; settings: Homo sapiens, MV4-11, 18 h; read-out: Activity
[3] = molecular target: T1, Protein deacetylase HDAC6 (Homo sapiens, UniProt Q9UBN7); assay: Inhibition of recombinant full length human HDAC6 expressed in baculovirus infected Sf9 cells assessed as inhibitory constant using FAM-RHKK-Ac as substrate incubated for 5 hrs by electrophoretic mobility shift assay
T1 sequence (Q9UBN7 whole entry): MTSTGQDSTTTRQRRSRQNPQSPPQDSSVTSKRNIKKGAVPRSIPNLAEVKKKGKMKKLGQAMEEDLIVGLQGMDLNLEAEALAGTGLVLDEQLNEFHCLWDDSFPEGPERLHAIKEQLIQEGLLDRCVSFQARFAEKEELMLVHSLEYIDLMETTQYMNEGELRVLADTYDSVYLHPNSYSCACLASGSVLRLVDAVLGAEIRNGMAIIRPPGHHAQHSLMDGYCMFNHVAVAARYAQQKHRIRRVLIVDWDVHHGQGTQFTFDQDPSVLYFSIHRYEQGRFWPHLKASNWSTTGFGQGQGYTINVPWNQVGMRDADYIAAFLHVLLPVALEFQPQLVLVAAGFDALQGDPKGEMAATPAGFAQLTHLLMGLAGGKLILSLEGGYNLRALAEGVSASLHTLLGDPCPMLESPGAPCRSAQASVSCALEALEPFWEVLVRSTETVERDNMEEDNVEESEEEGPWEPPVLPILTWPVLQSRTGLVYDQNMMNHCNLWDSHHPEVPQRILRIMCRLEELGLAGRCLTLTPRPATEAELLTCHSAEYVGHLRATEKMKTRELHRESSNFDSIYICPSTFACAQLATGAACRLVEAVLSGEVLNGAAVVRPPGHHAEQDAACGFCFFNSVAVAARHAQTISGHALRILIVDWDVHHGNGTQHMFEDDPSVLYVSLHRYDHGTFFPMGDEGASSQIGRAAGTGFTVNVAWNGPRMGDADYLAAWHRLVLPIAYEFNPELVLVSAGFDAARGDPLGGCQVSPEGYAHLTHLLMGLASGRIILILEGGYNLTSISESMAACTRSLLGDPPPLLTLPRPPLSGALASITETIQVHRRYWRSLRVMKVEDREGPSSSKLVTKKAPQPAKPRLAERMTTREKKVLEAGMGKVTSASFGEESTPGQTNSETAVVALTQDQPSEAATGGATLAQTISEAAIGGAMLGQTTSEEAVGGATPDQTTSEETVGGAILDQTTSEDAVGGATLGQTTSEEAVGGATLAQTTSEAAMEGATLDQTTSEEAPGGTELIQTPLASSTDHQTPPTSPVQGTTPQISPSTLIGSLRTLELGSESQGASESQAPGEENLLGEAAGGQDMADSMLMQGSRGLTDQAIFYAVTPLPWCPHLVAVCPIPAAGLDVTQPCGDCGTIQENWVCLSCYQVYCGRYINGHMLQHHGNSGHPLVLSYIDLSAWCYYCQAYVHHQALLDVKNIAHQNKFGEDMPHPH

Histone deacetylase 11 = molecular target: T2, Histone deacetylase 11 (Homo sapiens, UniProt Q96DB2); assay: Inhibition of recombinant full length human HDAC11 expressed in baculovirus infected Sf9 cells using FAM-RHKK-TFAc as substrate incubated for 17 hrs by electrophoretic mobility shift assay
T2 sequence (Q96DB2 whole entry): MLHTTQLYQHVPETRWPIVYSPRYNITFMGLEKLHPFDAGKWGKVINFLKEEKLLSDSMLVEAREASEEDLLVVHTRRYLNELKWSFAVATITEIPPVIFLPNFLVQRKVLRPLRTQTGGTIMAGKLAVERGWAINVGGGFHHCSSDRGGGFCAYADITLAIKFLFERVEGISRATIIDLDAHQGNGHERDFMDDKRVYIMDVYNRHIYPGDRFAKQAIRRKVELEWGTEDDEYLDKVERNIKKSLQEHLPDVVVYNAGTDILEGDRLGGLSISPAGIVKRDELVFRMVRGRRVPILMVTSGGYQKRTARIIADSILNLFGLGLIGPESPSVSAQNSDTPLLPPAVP

[4] = molecular target: T1, Protein deacetylase HDAC6; assay: Inhibition of recombinant full length human HDAC6 expressed in baculovirus infected Sf9 cells using FAM-RHKK-Ac as substrate incubated for 5 hrs by electrophoretic mobility shift assay
[5] = Cmax in NSG mouse; type: ADME; settings: in vivo
[6] = Protein binding in CD-1 mouse plasma at 1 uM incubated for 6 hrs by LCMS analysis; type: ADME, cell-free; settings: CD-1, mouse, read-out: PPB (converted)
MV4-11 [7] = assay: Induction of apoptosis in human MV4-11 cells assessed as early apoptotic cells at 4 uM incubated for 18 hrs by annexin V FITC and PI based flow cytometry (reference value: 19.46 to 22.17 %); type: functional
[8] = Oral bioavailability in CD-1 mouse at 20 mg/kg measured upto 24 hrs by LC/MS/MS analysis; type: ADME, organism-based; settings: in vivo
MOLM-13 = assay: Cytotoxicity against human MOLM13 cells assessed as reduction in cell viability incubated for 72 hrs by cell-titer blue assay; type: functional, cell-based; settings: MOLM-13, 72 h
Histone deacetylase 9 = Histone deacetylase 9 (Homo sapiens, UniProt Q9UKV0); assay: Inhibition of recombinant human HDAC9 (604-1066 residues) expressed in baculovirus infected Sf9 cells using FAM-RHKK-TFAc as substrate incubated for 3 hrs by electrophoretic mobility shift assay
Chain of Histone deacetylase 9 (Q9UKV0 whole entry, the tested form may be a part): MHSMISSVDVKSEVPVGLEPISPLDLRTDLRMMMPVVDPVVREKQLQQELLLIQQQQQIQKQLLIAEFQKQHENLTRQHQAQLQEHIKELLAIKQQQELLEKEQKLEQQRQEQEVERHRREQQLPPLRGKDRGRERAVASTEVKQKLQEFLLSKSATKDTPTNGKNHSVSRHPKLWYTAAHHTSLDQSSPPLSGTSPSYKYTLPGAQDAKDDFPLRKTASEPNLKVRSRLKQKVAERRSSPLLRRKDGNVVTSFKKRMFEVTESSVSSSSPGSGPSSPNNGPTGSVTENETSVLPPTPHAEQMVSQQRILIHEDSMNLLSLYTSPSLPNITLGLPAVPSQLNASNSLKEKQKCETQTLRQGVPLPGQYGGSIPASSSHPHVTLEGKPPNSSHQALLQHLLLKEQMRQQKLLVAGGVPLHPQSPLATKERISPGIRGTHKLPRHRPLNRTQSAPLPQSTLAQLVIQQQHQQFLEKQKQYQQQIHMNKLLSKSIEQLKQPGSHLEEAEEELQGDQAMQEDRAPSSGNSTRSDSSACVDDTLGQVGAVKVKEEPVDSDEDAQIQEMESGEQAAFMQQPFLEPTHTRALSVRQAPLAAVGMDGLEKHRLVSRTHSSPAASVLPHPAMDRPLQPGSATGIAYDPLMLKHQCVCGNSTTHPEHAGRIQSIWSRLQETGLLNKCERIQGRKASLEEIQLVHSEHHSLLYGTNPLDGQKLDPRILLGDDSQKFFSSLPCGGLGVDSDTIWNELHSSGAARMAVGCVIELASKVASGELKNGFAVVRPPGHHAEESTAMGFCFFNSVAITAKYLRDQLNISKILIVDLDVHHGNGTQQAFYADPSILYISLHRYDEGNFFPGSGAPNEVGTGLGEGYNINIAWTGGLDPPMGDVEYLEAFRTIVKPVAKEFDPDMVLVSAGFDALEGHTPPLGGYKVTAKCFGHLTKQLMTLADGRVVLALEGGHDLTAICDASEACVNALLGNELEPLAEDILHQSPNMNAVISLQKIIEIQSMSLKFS

[9] = Apparent permeability from apical to basolateral side in human Caco2 cells incubated for 2 hrs by LC/MS analysis; type: ADME, cell-based, Caco-2; settings: Caco-2

In the case of `CC(C)(C)c1ccc(C(=O)Nc2ccc(C(=O)NO)cc2)cc1`, the IC50 [1] is reported as 33.2 µM, the IC50 (MDA-MB-231) is reported as over 25 µM and the viability at 0.5 µM (MV4-11 [2]) is reported as 48.7%. For the same compound, the Ki [3] was 0.035 µM, the IC50 (Histone deacetylase 11) was over 1 µM and the IC50 [4] was 0.0244 µM. For the same compound, the Cmax [5] was 10.7 µM, the fraction unbound at 6 h, 1 µM [6] was 0.047 and the Activity (MV4-11 [7]) was 32.14%. It also gave a bioavailability [8] of 19.8%, an IC50 (MOLM-13) of 6 µM and an IC50 (Histone deacetylase 9) of over 1 µM. For the same compound, the Papp A→B at 2 h [9] was 3.45 ×10⁻⁶ cm/s.
